The values below come from patent publication US12171230B2, “Herbicidal compositions” (Bayer Aktiengesellschaft, priority 2018, dated 2024).

Common to all, as to format: in vivo
In experiment [1] the test system is Digitaria sanguinalis. Kind of experiment: Post-emergence herbicidal action against Digitaria sanguinalis. The note with it: for Herbicidal action: 21 DAT. Here is the method: (§1) When the observed efficacies exceed the formal sum total of the values of the tests with individual applications, they also exceed the expected value according to Colby, which is calculated using the formula below and is likewise regarded as an indication of synergism (cf. S. R. Colby; in Weeds 15 (1967) p. 20 to 22): E^C=A+B−([…])
(§2) Here: • A=efficacy of the active compound (A) in % at an application rate of a g a.i./ha; • B=efficacy of the active compound (B) in % at an application rate of b g a.i./ha; • E^C=expected value of the effect of the combination (A)+(B) in % at the combined application rate a+b g a.i./ha.
(§3) Seeds or rhizome pieces of mono- and dicotyledonous weeds are placed in sandy loam in pots, covered with soil and grown in a greenhouse under good growth conditions (temperature, air humidity, water supply). Three weeks after sowing, the test plants were treated at the three-leaf stage with the compositions according to the invention. The compositions according to the invention formulated as spray powders or as emulsion concentrates were sprayed onto the green plant parts in various dosages with an application rate of 300 to 800 l/ha of water (equivalent). After the test plants have been left to stand in the greenhouse under optimal growth conditions for about 3 to 4 weeks, the action of the preparations is scored visually in comparison to untreated controls. The compositions according to the invention also have good post-emergence herbicidal activity against a broad spectrum of economically important gramineous and broadleaf weeds.

For experiment [2], the system named is Bidens pilosa. The experiment is described as follows: Post-emergence herbicidal action against Bidens pilosa. Here is the method:
as §1, §2, §3

For experiment [3], the system named is Lolium rigidum (resistant biotype). The experiment is described as follows: Post-emergence herbicidal action against Lolium rigidum (resistant biotype). The text has this:
(§4) The following abbreviations are used in the description and the tables that follow: • g of a.i./ha=grams of active substance (active ingredient) (=100% active compound) per hectare; • The sum total of the effects of the individual applications is reported under E^A; • expected values according to Colby are each reported under E^C.
(§5) The rating period is reported in days after application (DAT).

The test system of experiment [4] is Alopecurus myosuroides. The experiment is described as follows: Post-emergence herbicidal action against Alopecurus myosuroides. The settings on record: 1.7 g of a.i./ha.
Source text: as §4, §5

Experiment [5] relates to Phalaris minor. Kind of experiment: Post-emergence herbicidal action against Phalaris minor. The note with it: 15 g of a.i./ha.
Source text: as §4, §5

Experiment [6] has as its system Matricaria inodora. The experiment is described as follows: Post-emergence herbicidal action against Matricaria inodora.
The test system of experiment [7] is Centaurea cyano. The experiment is described as follows: Post-emergence herbicidal action against Centaurea cyano. As to the method:
Seeds or rhizome pieces of mono- and dicotyledonous weeds are placed in sandy loam in pots, covered with soil and grown in a greenhouse under good growth conditions (temperature, air humidity, water supply). Three weeks after sowing, the test plants were treated at the three-leaf stage with the compositions according to the invention. The compositions according to the invention formulated as spray powders or as emulsion concentrates were sprayed onto the green plant parts in various dosages with an application rate of 300 to 800 l/ha of water (equivalent).

Experiment [8] relates to Amaranthus palmeri. The experiment is described as follows: Post-emergence herbicidal action against Amaranthus palmeri. The settings on record: Amaranthus palmeri, post-emergence, 504 h. Here is the method: as §1, §2, §3
Experiment [9] has as its system Poa annua. Kind of experiment: Post-emergence herbicidal action against Poa annua. The note with it: for Herbicidal action in [%] 28 DAT against Poa annua: post-emergence. Here is the method:
as §1, §2, §3

Experiment [10] relates to Bromus sterilis. Kind of experiment: Post-emergence herbicidal action against Bromus sterilis.
Experiment [11] relates to Lolium rigidum. Kind of experiment: Post-emergence herbicidal action against Lolium rigidum.
The subject of experiment [12] is Phalaris minor. Kind of experiment: Post-emergence herbicidal action against Phalaris minor.
Experiment [13] deals with Lolium rigidum (resistant biotype). Kind of experiment: Post-emergence herbicidal action against Lolium rigidum (resistant biotype). This is another data set of the same source.
Experiment [14] has as its system Alopecurus myosuroides. Kind of experiment: Post-emergence herbicidal action against Alopecurus myosuroides.
The test system of experiment [15] is Galium aparine. Kind of experiment: Post-emergence herbicidal action against Galium aparine. The settings on record: for Herbicidal action in [%] 28 DAT against Galium aparine: post-emergence. Here is the method:
as §1, §2, §3

`CP(=O)(O)CCC(N)C(=O)O` (racemic) [(B7.4) Glufosinate-]: the Herbicidal action in experiment [1] (40 g a.i./ha) was determined as 10%; in experiment [1] (120 g a.i./ha), 30%; in experiment [2] (21 DAT, 360 g a.i./ha), 70%.

`COc1cc(OC)nc(NC(=O)NS(=O)(=O)c2cc(CNS(C)(=O)=O)ccc2C(=O)O)n1` [(B2.37) Mesosulfuron]: in [3] (1.7 g of a.i./ha), the “Herbicidal action 14 DAT against Lolium rigidum (resistant biotype)” value (“Herbicidal action 14 DAT … (resistant biotype)” for short) is on record as 20% and the “Herbicidal action 28 DAT against Lolium rigidum (resistant biotype)” value (“Herbicidal action 28 DAT … (resistant biotype)” for short) amounted to 0%. In experiment [3] (5 g of a.i./ha), the “Herbicidal action 14 DAT … (resistant biotype)” value was 30% and the “Herbicidal action 28 DAT … (resistant biotype)” value is on record as 0%. Further, in [3] (15 g of a.i./ha), the “Herbicidal action 14 DAT … (resistant biotype)” value came to 30% and the “Herbicidal action 28 DAT … (resistant biotype)” value is reported as 20%. The “Herbicidal action 28 DAT against Alopecurus myosuroides” value in experiment [4] stood at 75%. Further, the “Herbicidal action 28 DAT against Phalaris minor” value in experiment [5] came to 85%. For the same compound, in [6] (15 g of a.i./ha), the “Herbicidal action 14 DAT against Matricaria inodora” value is listed as 75% and the “Herbicidal action 28 DAT against Matricaria inodora” value is 65%. Further, in experiment [7] (5 g of a.i./ha), the “Herbicidal action 28 DAT against Centaurea cyanus” value came out at 60%.

In the case of `COCc1cnc(C2=NC(C)(C(C)C)C(=O)N2)c(C(=O)O)c1` (stereo not shown) [(B4.11) Imazamox], the “Herbicidal action 21 DAT [%] against Digitaria sanguinalis” value in experiment [1] (3.3 g of a.i./ha) is 60%. Moreover, the “Herbicidal action 21 DAT [%] against Bidens pilosa” value in [2] (3.3 g of a.i./ha) is reported as 20%; in experiment [2] (30 g of a.i./ha), 50%.

On to `CCc1cnc(C2=NC(C)(C(C)C)C(=O)N2)c(C(=O)O)c1` (stereo not shown) [(B4.15) Imazethapyr], for which the pest or weed control at 3.33 g/ha in experiment [8] (3.33 g of a.i./ha, read-out: Herbicidal action 21 DAT [%] against Amaranthus palmeri) was 0%. Further, the pest or weed control at 10 g/ha in experiment [8] (10 g of a.i./ha, read-out: Herbicidal action 21 DAT [%] against Amaranthus palmeri) was determined as 0%. In addition, the pest or weed control at 30 g/ha in experiment [8] (30 g of a.i./ha, read-out: Herbicidal action 21 DAT [%] against Amaranthus palmeri) is 10%. For the same compound, the “Herbicidal action 21 DAT [%] against Bidens pilosa” value in [2] (3.33 g of a.i./ha) is reported as 0%; in experiment [2] (10 g of a.i./ha) it was 0%; in experiment [2] (30 g of a.i./ha), 25%.

As to `Cc1nn(C)c(O)c1C(=O)c1ccc(C(F)(F)F)cc1S(C)(=O)=O` [(B4.22) Pyrasulfotole], the “Herbicidal action in [%] 14 DAT against Poa annua L.” value in experiment [9] (5 g of a.i./ha), in experiment [9] (15 g of a.i./ha) and in experiment [9] (45 g of a.i./ha) was 0% in each case. Further, the “Herbicidal action in [%] 28 DAT against Poa annua L.” value in [9] (5 g of a.i./ha), in [9] (15 g of a.i./ha) and in experiment [9] (45 g of a.i./ha) was 0% throughout. Further, the “Herbicidal action in [%] 14 DAT against Bromus sterilis” value is given as 0% in experiment [10] (5 g of a.i./ha), 0% in [10] (15 g of a.i./ha) and 10% in experiment [10] (45 g of a.i./ha). Further, the “Herbicidal action in [%] 14 DAT against Lolium rigidum” value in experiment [11] (5 g of a.i./ha) was 0%; in experiment [11] (15 g of a.i./ha), 5%; in experiment [11] (45 g of a.i./ha) it was 5%. For the same compound, the “Herbicidal action in [%] 28 DAT against Lolium rigidum” value came to 0% in experiment [11] (5 g of a.i./ha), 0% in [11] (15 g of a.i./ha) and 10% in [11] (45 g of a.i./ha). The “Herbicidal action in [%] 14 DAT against Phalaris minor” value in experiment [12] (5 g of a.i./ha) and in experiment [12] (15 g of a.i./ha) was 0% throughout. For the same compound, the “Herbicidal action in [%] 28 DAT against Phalaris minor” value in experiment [12] (5 g of a.i./ha) and in experiment [12] (15 g of a.i./ha) was 0% throughout. Also, the “Herbicidal action in [%] 14 DAT against Matricaria inodora” value in experiment [6] (5 g of a.i./ha) is reported as 20%. The “Herbicidal action in [%] 28 DAT against Matricaria inodora” value in [6] (5 g of a.i./ha) was determined as 10%. For the same compound, the “Herbicidal action in [%] 14 DAT against Lolium rigidum (resistant biotype)” value in experiment [13] (5 g of a.i./ha) came to 5%; in experiment [13] (15 g of a.i./ha), 5%; in experiment [13] (45 g of a.i./ha), 10%. Besides, the “Herbicidal action in [%] 28 DAT against Lolium rigidum (resistant biotype)” value in [13] (5 g of a.i./ha) and in experiment [13] (15 g of a.i./ha) was 0% in each case. Moreover, the figures for the “Herbicidal action in [%] 14 DAT against Alopecurus myosuroides” value in experiment [14] (5 g of a.i./ha), in experiment [14] (15 g of a.i./ha) and in experiment [14] (45 g of a.i./ha) were 0%, 0% and 10%, respectively. The “Herbicidal action in [%] 28 DAT against Alopecurus myosuroides” value in [14] (5 g of a.i./ha) is listed as 0%; in experiment [14] (15 g of a.i./ha), 0%; in [14] (45 g of a.i./ha) it was 10%. Further, the “Herbicidal action in [%] 28 DAT against Centaurea cyanus” value came to 0% in experiment [7] (5 g of a.i./ha), 0% in experiment [7] (15 g of a.i./ha) and 20% in experiment [7] (45 g of a.i./ha). Besides, the “Herbicidal action in [%] 14 DAT against Centaurea cyanus” value in experiment [7] (15 g of a.i./ha) stood at 10%; in experiment [7] (45 g of a.i./ha), 30%.

In the case of `C#CCN1C(=O)COc2cc(F)c(N3C(=O)C4=C(CCCC4)C3=O)cc21` [(B5.26) Flumioxazin], the pest or weed control at 1.33 g/ha in [8] (21 DAT, 1.33 g of a.i./ha) was determined as 0%. The pest or weed control at 4 g/ha in experiment [8] (21 DAT, 4 g of a.i./ha) was found to be 0%. The pest or weed control at 12 g/ha in [8] (21 DAT, 12 g of a.i./ha) came out at 10%.

Turning to `CCOC(=O)COc1ncccc1Oc1cc(-n2c(=O)cc(C(F)(F)F)n(C)c2=O)c(F)cc1Cl` [(B9.14), ethyl [3-[2-chloro-4-fluoro-5-(1-methyl-6-trifluoromethyl-2,4-dioxo-1,2,3,4-tetrahydropyrimidin-3-yl)phenoxy]-2-pyridyloxy]acetate, reference compound], the figures for the “Herbicidal action in [%] 28 DAT against Poa annua” value in experiment [9] (5 g of a.i./ha) and in [9] (10 g of a.i./ha) were 80% and 60%, respectively. The “Herbicidal action in [%] 28 DAT against Galium aparine” value in experiment [15] (5 g of a.i./ha) and in experiment [15] (10 g of a.i./ha) was 90% throughout. The “Herbicidal action in [%] 28 DAT against Matricaria inodora” value in [6] (10 g of a.i./ha, post-emergence) is on record as 98%. Also, the “Herbicidal action in [%] 28 DAT against Centaurea cyano” value in [7] (2.5 g of a.i./ha, post-emergence) worked out at 90%.

Regarding `CC(C)N.O=C(O)CNCP(=O)(O)O` [(CAS 38641-94-0)], the Herbicidal action in experiment [15] (28 DAT, 150 g a.i./ha) was found to be 40%.
